According to the supplement of paper PMC10307832:

What follows are cell lines tested with O=c1ncccn1[C@@H]1O[C@H](CO)[C@@H](O)[C@H]1O [Zebularine] + CC(=O)c1c(C)c2cnc(Nc3ccc(N4CCNCC4)cn3)nc2n(C2CCCC2)c1=O [Palbociclib] (partner 0.5 µM) (assay: relative viability (nuclei count vs DMSO), 5 days (fraction); higher = more cells survive). Conditions: first compound 10 µM.
Summary of the method: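 Lung cancer cell lines were pin-tool dosed in 1536-well plates on the day after seeding, with either a lone drug or a fixed anchor-drug dose plus five library-drug doses (not always all listed) in √10 steps. Nuclei were counted on 4× images after 5 days. Relative viability is the ratio of treated-well to vehicle-well nuclei counts, with each value a median of duplicate plates.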

In order of rising relative viability:
1. LCLC-97TM1  0.0967
2. NCI-H647  0.149
3. NCI-H460  0.161
4. NCI-H3122  0.173
5. PC-14  0.175
6. NCI-H441  0.207
7. NCI-H1793  0.214
8. HOP-62  0.218
9. NCI-H2009  0.234
10. NCI-H2023  0.235
11. NCI-H1792  0.282
12. NCI-H1437  0.308
13. NCI-H1734  0.322
14. LC-2-ad  0.322
15. 201T  0.325
16. EPLC-272H  0.326
17. LU99A  0.331
18. HCC-78  0.34
19. ChaGo-K-1  0.345
20. SK-LU-1  0.347
21. NCI-H2170  0.366
22. NCI-H1355  0.384
23. CAL-12T  0.409
24. NCI-H2347  0.414
25. HCC-827  0.424
26. NCI-H661  0.425
27. NCI-H1755  0.45
28. BEN  0.451
29. NCI-H322M  0.471
30. A-427  0.472
31. NCI-H2405  0.478
32. NCI-H1915  0.485
33. NCI-H1651  0.507
34. HCC-15  0.521
35. LXF-289  0.573
36. NCI-H1395  0.621
37. NCI-H522  0.926
38. HCC-44  1.07

Same assay, conditions: first compound 31.62 µM

In order of rising relative viability:
1. NCI-H647  0.0894
2. LCLC-97TM1  0.102
3. PC-14  0.103
4. NCI-H460  0.117
5. NCI-H441  0.148
6. HOP-62  0.158
7. NCI-H1793  0.186
8. NCI-H3122  0.195
9. ChaGo-K-1  0.198
10. NCI-H2009  0.198
11. NCI-H520  0.201
12. NCI-H2087  0.218
13. COR-L23  0.224
14. HCC-366  0.23
15. NCI-H838  0.238
16. NCI-H1648  0.25
17. LU99A  0.278
18. LK-2  0.28
19. HARA  0.292
20. NCI-H1734  0.3
21. NCI-H1355  0.303
22. H3255  0.314
23. NCI-H2023  0.322
24. EPLC-272H  0.324
25. SK-MES-1  0.328
26. EKVX  0.343
27. NCI-H2126  0.377
28. SK-LU-1  0.38
29. A-427  0.385
30. SW 1573  0.391
31. LXF-289  0.395
32. NCI-H1792  0.401
33. NCI-H2170  0.404
34. COR-L 105  0.406
35. LC-2-ad  0.408
36. 201T  0.411
37. BEN  0.422
38. NCI-H661  0.435
39. NCI-H1437  0.453
40. NCI-H322M  0.463
41. NCI-H2347  0.471
42. HCC-78  0.472
43. NCI-H1755  0.474
44. HCC-827  0.485
45. NCI-H1650  0.504
46. LCLC-103H  0.505
47. HCC-15  0.506
48. NCI-H2405  0.509
49. NCI-H1395  0.512
50. NCI-H2342  0.526
51. NCI-H1915  0.541
52. NCI-H2085  0.552
53. LOU-NH91  0.552
54. NCI-H2228  0.552
55. CAL-12T  0.557
56. NCI-H1651  0.557
57. NCI-H23  0.576
58. EMC-BAC-2  0.6
59. NCI-H1993  0.633
60. NCI-H727  0.634
61. SW 900  0.669
62. NCI-H1666  0.689
63. NCI-H522  0.827
64. HCC-44  1.16

Same assay, conditions: first compound 100 µM

In order of falling relative viability:
1. NCI-H522  0.765
2. NCI-H1993  0.695
3. NCI-H1666  0.654
4. NCI-H727  0.618
5. EMC-BAC-2  0.539
6. SW 900  0.527
7. NCI-H1395  0.518
8. HCC-44  0.5
9. NCI-H322M  0.496
10. LCLC-103H  0.473
11. NCI-H2342  0.47
12. LOU-NH91  0.47
13. HCC-78  0.449
14. NCI-H661  0.438
15. NCI-H2405  0.435
16. COR-L 105  0.43
17. NCI-H1792  0.423
18. NCI-H1755  0.415
19. EKVX  0.413
20. NCI-H23  0.411
21. NCI-H2085  0.394
22. 201T  0.39
23. SW 1573  0.38
24. BEN  0.368
25. SK-LU-1  0.356
26. CAL-12T  0.353
27. NCI-H1915  0.352
28. NCI-H1651  0.352
29. EPLC-272H  0.344
30. HCC-827  0.339
31. NCI-H2347  0.338
32. NCI-H1437  0.329
33. H3255  0.321
34. NCI-H2126  0.318
35. LC-2-ad  0.301
36. HCC-15  0.3
37. A-427  0.296
38. NCI-H1650  0.285
39. NCI-H2170  0.283
40. SK-MES-1  0.272
41. NCI-H1355  0.252
42. NCI-H2023  0.245
43. NCI-H1648  0.24
44. NCI-H1734  0.239
45. HARA  0.235
46. LXF-289  0.233
47. NCI-H1793  0.221
48. NCI-H838  0.219
49. ChaGo-K-1  0.217
50. NCI-H2228  0.216
51. LK-2  0.204
52. NCI-H2009  0.197
53. NCI-H3122  0.19
54. LU99A  0.187
55. NCI-H2087  0.185
56. NCI-H441  0.181
57. NCI-H520  0.175
58. HOP-62  0.152
59. COR-L23  0.146
60. PC-14  0.118
61. LCLC-97TM1  0.111
62. HCC-366  0.108
63. NCI-H647  0.104
64. NCI-H460  0.0697
